Reference: patent US11027245B1, “Process for continuous dissolution of a solid in a reaction medium” (Evonik Operations GmbH, priority 2017, dated 2021)

Assay: Dissolution of phenothiazine fixed bed in acetic acid (UV absorption at 390 nm)
Assay type: physicochemical
Details: saturation concentration
Description: The dissolution of phenothiazine in acetic acid according to the process according to the invention was investigated by experiment. FIG. 2 illustrates the relevant experimental setup.
A phenothiazine fixed bed is placed in a temperature-controllable chromatography column (Götec-Labor GmbH, Superformance 300-16, length 300 mm, internal diameter 16 mm, double-walled for thermostatting, 20 μm type F filter frit). Pump P-01 conveys acetic acid from the reservoir vessel through the fixed bed temperature-controlled to 20° C. into a waste vessel. Pump P-02 diverts a sample stream to the UV detector. The phenothiazine concentration is determined by absorption measurement at 390 nm. The detector is previously calibrated with a phenothiazine solution of known concentration.
A first experiment was performed with a flow rate of 12.4 cm/min at a volume flow of 25.0 ml/min. […] The measured detector extinction (dashed) periodically deviates from the concentration at the bed outlet since to protect the measuring cell from solids particles the solution was not passed through the detector upon startup. In the further course of the experiment calibration solutions were passed through the detector as a control. The “corrected bed outlet concentration” (solid curve beginning at a concentration of 0.000) was calculated over the experimental duration via linear interpolation and extrapolation. […]

c1ccc2c(c1)Nc1ccccc1S2 [phenothiazine]
Max conc (phenothiazine) (Experiment 1, fixed bed thermostatted 20.0 °C, flow rate 12.4 cm/min, volume flow 25.0 ml/min): 1.23 % by wt.
Max conc (phenothiazine) (Experiment 2, fixed bed thermostatted 20.0 °C, flow rate 11.0 cm/min, volume flow 22.2 ml/min): 1.22 % by wt.
